The test system of the assay is PKC mediated IL-2 production in human primary T cells. In words: IL-2 ELISA, human primary T cell, anti CD3+CD28+ (whole cell functional assay for PKC mediated IL-2 production). The assay is classed as cell-based. In outline:
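Primary human T cells (PBMC-derived, expanded on plate-bound anti-CD3/CD28 with IL-2, then IL-2-washed) were pre-incubated 1 h at 37 °C with compound, then stimulated on 1 μg/ml anti-CD3 plus 5 μg/ml anti-CD28. After 24 h at 37 °C, secreted IL-2 was measured by ELISA; counter assay used 0.5 ng/ml PMA plus 0.1 μM ionomycin (final).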

Where [1] appears, read: 24 h, human primary T cells stimulated with anti-CD3 + anti-CD28, IL-2 by ELISA, read-out: IC50 for blocking IL-2 production.
[2] abbreviates: human primary T cells stimulated with anti-CD3 + anti-CD28, 24 h, IL-2 by ELISA, 8 pt, read-out: IL2 ELISA, Human primary T cell, anti-CD3 + CD28, 8 pt (IC50).

The structures appear in SMILES notation. Read-outs that look alike come from different tables or passages of the source. A value given as a limit tells only on which side of the number the result lay.

In general, IC50 refers to the midpoint of a concentration-inhibition curve.

As for `O=c1[nH]c2cc(Nc3ncc(C(F)(F)F)c(NC[C@@H]4CCCN5CCCC[C@H]45)n3)ccc2o1` [Compound 112, 5-(4-(((1S,9aR)-octahydro-1H-quinolizin-1-yl)methylamino)-5-(trifluoromethyl)pyrimidin-2-ylamino)benzo[d]oxazol-2(3H)-one], the IC50 reads like this: under setting [1], below 30 µM; under setting [2], 21.7 µM.

On to `COc1ccc(Nc2ncc(C#N)c(NC[C@@H]3CCCN4CCCC[C@H]34)n2)cc1-n1nnnc1C` [Compound 113, 4-(((1S,9aR)-octahydro-1H-quinolizin-1-yl)methylamino)-2-(4-methoxy-3-(5-methyl-1H-tetrazol-1-yl)phenylamino)pyrimidine-5-carbonitrile], for which the IC50 under setting [1] was below 30 µM and the IC50 under setting [2] was 0.018 µM.

On to `Cc1nnnn1-c1cc(Nc2ncc(C#N)c(NC[C@@H]3CCCN4CCCC[C@H]34)n2)ccc1F` [Compound 114, 4-(((1S,9aR)-octahydro-1H-quinolizin-1-yl)methylamino)-2-(4-fluoro-3-(5-methyl-1H-tetrazol-1-yl)phenylamino)pyrimidine-5-carbonitrile], for which the IC50 is below 30 µM under setting [1] and 0.0365 µM under setting [2].

Consider `COc1cc(Nc2ncc(C#N)c(NC[C@@H]3CCCN4CCCC[C@H]34)n2)cc(-n2nnnc2C)c1` [Compound 115, 4-(((1S,9aR)-octahydro-1H-quinolizin-1-yl)methylamino)-2-(3-methoxy-5-(5-methyl-1H-tetrazol-1-yl)phenylamino)pyrimidine-5-carbonitrile], for which the IC50 is, setting by setting: under setting [1], below 30 µM; under setting [2], 0.0225 µM.

With `N#Cc1cnc(Nc2cc(-n3cnnn3)c(C3CC3)cc2F)nc1NC[C@@H]1CCCN2CCCC[C@H]12` [Compound 116, 4-(((1S,9aR)-octahydro-1H-quinolizin-1-yl)methylamino)-2-(4-cyclopropyl-2-fluoro-5-(1H-tetrazol-1-yl)phenylamino)pyrimidine-5-carbonitrile], the IC50 under setting [1] is below 30 µM and the IC50 under setting [2] came out at 0.0074 µM.

Turning to `Cc1ccc(Nc2ncc(C#N)c(NC[C@@H]3CCCN4CCCC[C@H]34)n2)cc1-n1cnnn1` [Compound 117, 4-(((1S,9aR)-octahydro-1H-quinolizin-1-yl)methylamino)-2-(4-methyl-3-(1H-tetrazol-1-yl)phenylamino)pyrimidine-5-carbonitrile], the IC50 under setting [1] was below 30 µM and the IC50 under setting [2] amounted to 0.0117 µM.

For `Cc1nnnn1-c1ccc(F)c(Nc2ncc(C#N)c(NC[C@@H]3CCCN4CCCC[C@H]34)n2)c1` [Compound 118, 4-(((1S,9aR)-octahydro-1H-quinolizin-1-yl)methylamino)-2-(2-fluoro-5-(5-methyl-1H-tetrazol-1-yl)phenylamino)pyrimidine-5-carbonitrile], the IC50 is below 30 µM under setting [1] and 0.076 µM under setting [2].

On to `Cc1ccc(Nc2ncc(C#N)c(NC[C@@H]3CCCN4CCCC[C@H]34)n2)cc1C#N` [Compound 119, 4-(((1S,9aR)-octahydro-1H-quinolizin-1-yl)methylamino)-2-(3-cyano-4-methylphenylamino)pyrimidine-5-carbonitrile], for which the IC50 was below 30 µM under setting [1] and 0.0357 µM under setting [2].

In the case of `N#Cc1cc(Nc2ncc(C#N)c(NC[C@@H]3CCCN4CCCC[C@H]34)n2)ccc1C1CC1` [Compound 120, 4-(((1S,9aR)-octahydro-1H-quinolizin-1-yl)methylamino)-2-(3-cyano-4-cyclopropylphenylamino)pyrimidine-5-carbonitrile], the IC50 runs as follows: under setting [1], below 30 µM; under setting [2], 0.0093 µM.

`COc1cc(Nc2ncc(C#N)c(NC[C@@H]3CCCN4CCCC[C@H]34)n2)cc(OC)c1` [Compound 121, 4-(((1S,9aR)-octahydro-1H-quinolizin-1-yl)methylamino)-2-(3,5-dimethoxyphenylamino)pyrimidine-5-carbonitrile]: the IC50 was below 30 µM under setting [1] and 0.141 µM under setting [2].

With `N#Cc1cnc(Nc2ccc(F)c(-n3nnnc3C3CC3)c2)nc1NC[C@@H]1CCCN2CCCC[C@H]12` [Compound 122, 4-(((1S,9aR)-octahydro-1H-quinolizin-1-yl)methylamino)-2-(3-(5-cyclopropyl-1H-tetrazol-1-yl)-4-fluorophenylamino)pyrimidine-5-carbonitrile], the IC50 is below 30 µM under setting [1] and 0.0206 µM under setting [2].

With `N#Cc1cnc(Nc2cc(-n3nnnc3C3CC3)ccc2F)nc1NC[C@@H]1CCCN2CCCC[C@H]12` [Compound 123, 4-(((1S,9aR)-octahydro-1H-quinolizin-1-yl)methylamino)-2-(5-(5-cyclopropyl-1H-tetrazol-1-yl)-2-fluorophenylamino)pyrimidine-5-carbonitrile], the IC50 by setting is: under setting [1], below 30 µM; under setting [2], 0.0418 µM.

With `N#Cc1cnc(Nc2ccc(Cl)c(-n3nnnc3C3CC3)c2)nc1NC[C@@H]1CCCN2CCCC[C@H]12` [Compound 124, 4-(((1S,9aR)-octahydro-1H-quinolizin-1-yl)methylamino)-2-(4-chloro-3-(5-cyclopropyl-1H-tetrazol-1-yl)phenylamino)pyrimidine-5-carbonitrile], the IC50 under setting [1] was below 30 µM and the IC50 under setting [2] stood at 0.0031 µM.

As to `COc1ccc(Nc2ncc(C(N)=O)c(NC[C@@H]3CCCN4CCCC[C@H]34)n2)cc1-n1nnnc1C` [Compound 125, 4-(((1S,9aR)-octahydro-1H-quinolizin-1-yl)methylamino)-2-(4-methoxy-3-(5-methyl-1H-tetrazol-1-yl)phenylamino)pyrimidine-5-carboxamide], the IC50 was below 30 µM under setting [1] and 1.78 µM under setting [2].

Take `Cc1nnnn1-c1cc(Nc2ncc(C(N)=O)c(NC[C@@H]3CCCN4CCCC[C@H]34)n2)ccc1F` [Compound 126, 4-(((1S,9aR)-octahydro-1H-quinolizin-1-yl)methylamino)-2-(4-fluoro-3-(5-methyl-1H-tetrazol-1-yl)phenylamino)pyrimidine-5-carboxamide]: the IC50 by setting is: under setting [1], below 30 µM; under setting [2], 1.6 µM.

With `Cc1nnnn1-c1ccc(F)c(Nc2ncc(C(N)=O)c(NC[C@@H]3CCCN4CCCC[C@H]34)n2)c1` [Compound 127, 4-(((1S,9aR)-octahydro-1H-quinolizin-1-yl)methylamino)-2-(2-fluoro-5-(5-methyl-1H-tetrazol-1-yl)phenylamino)pyrimidine-5-carboxamide], the IC50 under setting [1] was below 30 µM and the IC50 under setting [2] was found to be 0.824 µM.

Take `Cn1nnn(-c2cc(Nc3ncc(C#N)c(NC[C@@H]4CCCN5CCCC[C@H]45)n3)c(F)cc2O)c1=O` [Compound 128, 2-((2-fluoro-4-hydroxy-5-(4-methyl-5-oxo-4,5-dihydro-1H-tetrazol-1-yl)phenyl)amino)-4-((((1S,9aR)-octahydro-2H-quinolizin-1-yl)methyl)amino)pyrimidine-5-carbonitrile]: the IC50 under setting [1] was below 30 µM and the IC50 under setting [2] is 1.94 µM.

For `COCCOc1cc(F)c(Nc2ncc(C#N)c(NC[C@@H]3CCCN4CCCC[C@H]34)n2)cc1-n1nnn(C)c1=O` [Compound 129, 2-((2-fluoro-4-(2-methoxyethoxy)-5-(4-methyl-5-oxo-4,5-dihydro-1H-tetrazol-1-yl)phenyl)amino)-4-((((1S,9aR)-octahydro-2H-quinolizin-1-yl)methyl)amino)pyrimidine-5-carbonitrile], the IC50 by setting is: under setting [1], below 30 µM; under setting [2], 1.34 µM.

For `Cn1nnn(-c2cc(Nc3ncc(C#N)c(NC[C@@H]4CCCN5CCCC[C@H]45)n3)c(F)cc2OCC2(C)COC2)c1=O` [Compound 130, 2-((2-fluoro-5-(4-methyl-5-oxo-4,5-dihydro-1H-tetrazol-1-yl)-4-((3-methyloxetan-3-yl)methoxy)phenyl)amino)-4-((((1S,9aR)-octahydro-2H-quinolizin-1-yl)methyl)amino)pyrimidine-5-carbonitrile], the IC50 is, setting by setting: under setting [1], below 30 µM; under setting [2], 0.444 µM.

`Cn1nnn(-c2cc(Nc3ncc(C#N)c(NC[C@@H]4CCCN5CCCC[C@H]45)n3)c(F)cc2OCC2COCCO2)c1=O` (stereo partly drawn) [Compound 131, 2-((4-((1,4-dioxan-2-yl)methoxy)-2-fluoro-5-(4-methyl-5-oxo-4,5-dihydro-1H-tetrazol-1-yl)phenyl)amino)-4-((((1S,9aR)-octahydro-2H-quinolizin-1-yl)methyl)amino)pyrimidine-5-carbonitrile]: the IC50 is below 30 µM under setting [1] and 1.3 µM under setting [2].

Take `Cn1nnn(-c2cc(Nc3ncc(C#N)c(NC[C@@H]4CCCN5CCCC[C@H]45)n3)c(F)cc2OCC(O)CO)c1=O` (stereo partly drawn) [Compound 132, 2-((4-(2,3-dihydroxypropoxy)-2-fluoro-5-(4-methyl-5-oxo-4,5-dihydro-1H-tetrazol-1-yl)phenyl)amino)-4-((((1S,9aR)-octahydro-2H-quinolizin-1-yl)methyl)amino)pyrimidine-5-carbonitrile]: the IC50 under setting [1] was below 30 µM and the IC50 under setting [2] came to 1.24 µM.

In the case of `COCCOCCOc1cc(F)c(Nc2ncc(C#N)c(NC[C@@H]3CCCN4CCCC[C@H]34)n2)cc1-n1nnn(C)c1=O` [Compound 133, 2-((2-fluoro-4-(2-(2-methoxyethoxyl)ethoxy)-5-(4-methyl-5-oxo-4,5-dihydro-1H-tetrazol-1-yl)phenyl)amino)-4-((((1S,9aR)-octahydro-2H-quinolizin-1-yl)methyl)amino)pyrimidine-5-carbonitrile], the IC50 by setting is: under setting [1], below 30 µM; under setting [2], 0.992 µM.

In the case of `Cn1nnn(-c2cc(Nc3ncc(C#N)c(NC[C@@H]4CCCN5CCCC[C@H]45)n3)c(F)cc2OCC(O)(C(F)(F)F)C(F)(F)F)c1=O` [Compound 134, 2-((2-fluoro-5-(4-methyl-5-oxo-4,5-dihydro-1H-tetrazol-1-yl)-4-(3,3,3-trifluoro-2-hydroxy-2-(trifluoromethyl)propoxy)phenyl)amino)-4-((((1S,9aR)-octahydro-2H-quinolizin-1-yl)methyl)amino)pyrimidine-5-carbonitrile], the IC50 is, setting by setting: under setting [1], below 30 µM; under setting [2], 0.908 µM.

These data come from US9913843B2, “Protein kinase C inhibitors and uses thereof” (Rigel Pharmaceuticals, Inc., priority 2012, dated 2018).
